Measured values as given in patent US11319299B2, “Substituted carboxamides as inhibitors of WDR5 protein-protein binding” (PROPELLON THERAPEUTICS INC., priority 2016, dated 2022).

target: WDR5 (Homo sapiens (Human), UniProt P61964); assay: Surface Plasmon Resonance (SPR) assay, KD and residence time; format: binding; conditions: surface plasmon resonance (SPR) assay; read-out: WDR5 binding affinity (KD)

| Kd | Structure (SMILES) |
| --- | --- |
| 0.000665 µM | C[C@@H]1CN(c2cc(F)c(C3=CCN(S(C)(=O)=O)C3)cc2NC(=O)c2c[nH]c(=O)cc2C(F)(F)F)C[C@H](C)N1C [Example 249, N-[4-fluoro-5-(1-methylsulfonyl-2,5-dihydropyrrol-3-yl)-2-[(3R,5S)-3,4,5-trimethylpiperazin-1-yl]phenyl]-6-oxo-4-(trifluoromethyl)-1H-pyridine-3-carboxamide] |
| 0.00134 µM | C[C@@H]1CN(c2cc(F)c(-c3ccc(N4CCOCC4)c(Cl)c3)cc2NC(=O)c2c[nH]c(=O)cc2C(F)(F)F)C[C@H](C)N1C [Example 68, N-[5-(3-chloro-4-morpholin-4-ylphenyl)-4-fluoro-2-[(3R,5S)-3,4,5-trimethylpiperazin-1-yl]phenyl]-6-oxo-4-(trifluoromethyl)-1H-pyridine-3-carboxamide] |
| 0.00101 µM | C[C@@H]1CN(c2cc(F)c(C3=CCN(C(=O)N(C)C)CC3)cc2NC(=O)c2c[nH]c(=O)cc2C(F)(F)F)C[C@H](C)N1C [Example 285, N-[5-[1-(dimethylcarbamoyl)-3,6-dihydro-2H-pyridin-4-yl]-4-fluoro-2-[(3R,5S)-3,4,5-trimethylpiperazin-1-yl]phenyl]-6-oxo-4-(trifluoromethyl)-1H-pyridine-3-carboxamide] |
| 0.0199 µM | C[C@@H]1CN(c2ncc(-c3cc(NC(=O)c4c[nH]c(=O)cc4C(F)(F)F)c(N4C[C@@H](C)N(C)[C@H](C)C4)cc3F)cn2)C[C@H](C)O1 (stereo in doubt) [Example 356, N-[4-fluoro-5-[2-[(2R,6S)-2,6-dimethylmorpholin-4-yl]pyrimidin-5-yl]-2-[(3R,5R)-3,4,5-trimethylpiperazin-1-yl]phenyl]-6-oxo-4-(trifluoromethyl)-1H-pyridine-3-carboxamide] |
| > 0.2 µM | Cc1csc(C(=O)Nc2cc(-c3cnc(N4CCOCC4)nc3)c(F)cc2N2CCN(C)C(C)C2)n1 (stereo in doubt) [Example 181, N-[4-fluoro-5-(2-morpholin-4-ylpyrimidin-5-yl)-2-[(3R)-3,4-dimethylpiperazin-1-yl]phenyl]-4-methyl-1,3-thiazole-2-carboxamide] |
| 0.000606 µM | CC(C)[C@@H]1CN(c2ncc(-c3cc(NC(=O)c4c[nH]c(=O)cc4C(F)(F)F)c(N4CCN(C)[C@H](C)C4)cc3F)cn2)CCO1 (stereo in doubt) [Example 347, N-[4-fluoro-2-[(3R)-3,4-dimethylpiperazin-1-yl]-5-[2-[(2R)-2-propan-2-ylmorpholin-4-yl]pyrimidin-5-yl]phenyl]-6-oxo-4-(trifluoromethyl)-1H-pyridine-3-carboxamide] |
| 0.00142 µM | C[C@@H]1CN(c2cc(F)c(-c3cnc(N4CCOC(C)(C)C4)nc3)cc2NC(=O)c2c[nH]c(=O)cc2C(F)(F)F)C[C@H](C)N1C [Example 350, N-[5-[2-(2,2-dimethylmorpholin-4-yl)pyrimidin-5-yl]-4-fluoro-2-[(3R,5S)-3,4,5-trimethylpiperazin-1-yl]phenyl]-6-oxo-4-(trifluoromethyl)-1H-pyridine-3-carboxamide] |
| 0.00512 µM | C[C@@H]1CN(c2cc(F)c(-c3cccc(CN4CCC(F)CC4)c3)cc2NC(=O)c2c[nH]c(=O)cc2C(F)(F)F)C[C@H](C)N1C [Example 119, N-[4-fluoro-5-[3-[(4-fluoropiperidin-1-yl)methyl]phenyl]-2-[(3R,5S)-3,4,5-trimethylpiperazin-1-yl]phenyl]-6-oxo-4-(trifluoromethyl)-1H-pyridine-3-carboxamide] |
| 0.0291 µM | C[C@@H]1CN(c2cc(F)c(-c3cnc(N4CCOCC4)nc3)cc2NC(=O)c2cccc(O)c2)C[C@H](C)N1C [Example 281, N-[4-fluoro-5-(2-morpholin-4-ylpyrimidin-5-yl)-2-[(3R,5S)-3,4,5-trimethylpiperazin-1-yl]phenyl]-3-hydroxybenzamide] |
| 0.0835 µM | C[C@H]1CN(c2cc(F)c(-c3cnc(N4CCOCC4)nc3)cc2NC(=O)c2ccc(F)cc2C(F)(F)F)C[C@H](C)N1C (racemic) [Example 387, 4-fluoro-N-[4-fluoro-5-(2-morpholin-4-ylpyrimidin-5-yl)-2-[(3R,5R)-3,4,5-trimethylpiperazin-1-yl]phenyl]-2-(trifluoromethyl)benzamide] |
| 0.0033 µM | CCOC(=O)N1CC=C(c2cc(NC(=O)c3c[nH]c(=O)cc3C(F)(F)F)c(N3C[C@@H](C)N(C)[C@@H](C)C3)cc2F)CC1 [Example 253, ethyl 4-[2-fluoro-5-[[6-oxo-4-(trifluoromethyl)-1H-pyridine-3-carbonyl]amino]-4-[(3R,5S)-3,4,5-trimethylpiperazin-1-yl]phenyl]-3,6-dihydro-2H-pyridine-1-carboxylate] |

same assay, conditions: surface plasmon resonance (SPR); read-out: WDR5 binding affinity (KD)

| Structure (SMILES) | Kd |
| --- | --- |
| CC1CN(c2cc(F)c(-c3ccc(N4C[C@@H](C)O[C@@H](C)C4)nc3)cc2NC(=O)c2ccc(F)cc2C(F)(F)F)CCN1C (stereo in doubt) [Example 423, 4-fluoro-N-[4-fluoro-5-[6-[(2R,6S)-2,6-dimethylmorpholin-4-yl]pyridin-3-yl]-2-[(3R)-3,4-dimethylpiperazin-1-yl]phenyl]-2-(trifluoromethyl)benzamide] | 0.00193 µM |
| C[C@@H]1CN(c2cc(F)c(-c3cccs3)cc2NC(=O)c2c[nH]c(=O)cc2C(F)(F)F)C[C@H](C)N1C [Example 492, N-[4-fluoro-2-[(3R,5S)-3,4,5-trimethylpiperazin-1-yl]-5-thiophen-2-ylphenyl]-6-oxo-4-(trifluoromethyl)-1H-pyridine-3-carboxamide] | 0.00335 µM |
| C[C@@H]1CN(c2cc(F)c(-c3csc(C(=O)N4CCN(C)CC4)n3)cc2NC(=O)c2cn(C)c(=O)cc2C(F)(F)F)C[C@H](C)N1C [Example 528, N-[4-fluoro-5-[2-(4-methylpiperazine-1-carbonyl)-1,3-thiazol-4-yl]-2-[(3R,5S)-3,4,5-trimethylpiperazin-1-yl]phenyl]-1-methyl-6-oxo-4-(trifluoromethyl)pyridine-3-carboxamide] | 0.00405 µM |
| C[C@@H]1CN(c2ccc(-c3cc(NC(=O)c4ccc(F)cc4C(F)(F)F)c(N4C[C@@H](C)N(C)[C@@H](C)C4)cc3F)cn2)C[C@H](C)O1 [Example 432, 4-fluoro-N-[4-fluoro-5-[6-[(2R,6S)-2,6-dimethylmorpholin-4-yl]pyridin-3-yl]-2-[(3S,5R)-3,4,5-trimethylpiperazin-1-yl]phenyl]-2-(trifluoromethyl)benzamide] | 0.00231 µM |
| C[C@@H]1CN(c2ccc(-c3cc(NC(=O)c4c[nH]c(=O)cc4C(F)F)c(N4C[C@@H](C)N(C)[C@@H](C)C4)cc3F)cn2)C[C@H](C)O1 [Example 511, 4-(difluoromethyl)-N-[4-fluoro-5-[6-[(2R,6S)-2,6-dimethylmorpholin-4-yl]pyridin-3-yl]-2-[(3R,5S)-3,4,5-trimethylpiperazin-1-yl]phenyl]-6-oxo-1H-pyridine-3-carboxamide] | 0.000779 µM |
| C[C@@H]1CN(c2cc(F)c(-c3ccsc3)cc2NC(=O)c2c[nH]c(=O)cc2C(F)(F)F)C[C@H](C)N1C [Example 493, N-[4-fluoro-2-[(3R,5S)-3,4,5-trimethylpiperazin-1-yl]-5-thiophen-3-ylphenyl]-6-oxo-4-(trifluoromethyl)-1H-pyridine-3-carboxamide] | 0.00286 µM |

Further lines, results first:

| Kd | Structure (SMILES) |
| --- | --- |
| 13600 µM | C[C@@H]1CN(c2cc(F)c(-c3ccnc(N4CCOCC4)n3)cc2NC(=O)c2cn(C)c(=O)cc2C(F)F)C[C@H](C)N1C [Example 746, 4-(difluoromethyl)-N-[4-fluoro-5-(2-morpholin-4-ylpyrimidin-4-yl)-2-[(3R,5S)-3,4,5-trimethylpiperazin-1-yl]phenyl]-1-methyl-6-oxopyridine-3-carboxamide] |
| 0.00131 µM | C[C@@H]1CN(c2cc(F)c(C3=CCN(c4ncc(C#N)s4)CC3)cc2NC(=O)c2c[nH]c(=O)cc2C(F)(F)F)C[C@H](C)N1C [Example 696, N-[5-[1-(5-cyano-1,3-thiazol-2-yl)-3,6-dihydro-2H-pyridin-4-yl]-4-fluoro-2-[(3R,5S)-3,4,5-trimethylpiperazin-1-yl]phenyl]-6-oxo-4-(trifluoromethyl)-1H-pyridine-3-carboxamide] |
| 0.00118 µM | CC1CN(c2cc(F)c(-c3cccc(N4CCOCC4)n3)cc2NC(=O)c2c[nH]c(=O)cc2C(F)(F)F)CCN1C (stereo in doubt) [Example 719, N-[4-fluoro-5-(6-morpholin-4-ylpyridin-2-yl)-2-[(3R)-3,4-dimethylpiperazin-1-yl]phenyl]-6-oxo-4-(trifluoromethyl)-1H-pyridine-3-carboxamide] |
| 0.00302 µM | CNc1nccc(-c2cc(NC(=O)c3c[nH]c(=O)cc3C(F)(F)F)c(N3C[C@@H](C)N(C)[C@@H](C)C3)cc2F)n1 [Example 538, N-[4-fluoro-5-[2-(methylamino)pyrimidin-4-yl]-2-[(3R,5S)-3,4,5-trimethylpiperazin-1-yl]phenyl]-6-oxo-4-(trifluoromethyl)-1H-pyridine-3-carboxamide] |
| 0.00628 µM | CC1CN(c2cc(F)c(C3=CCCN(c4ncc(C#N)s4)C3)cc2NC(=O)c2ccc(F)cc2C(F)(F)F)CCN1C (stereo in doubt) [Example 689, N-[5-[1-(5-cyano-1,3-thiazol-2-yl)-3,6-dihydro-2H-pyridin-5-yl]-4-fluoro-2-[(3R)-3,4-dimethylpiperazin-1-yl]phenyl]-4-fluoro-2-(trifluoromethyl)benzamide] |
| 0.0169 µM | COCCN(C)[C@@H]1CCN(c2cc(F)c(-c3cnc(N4CCOCC4)nc3)cc2NC(=O)c2c[nH]c(=O)cc2C(F)(F)F)C1 [Example 578, N-[4-fluoro-5-(2-morpholin-4-ylpyrimidin-5-yl)-2-[(3R)-3-[2-methoxyethyl(methyl)amino]pyrrolidin-1-yl]phenyl]-6-oxo-4-(trifluoromethyl)-1H-pyridine-3-carboxamide] |
| 0.00276 µM | CC1CN(c2cc(F)c(-c3cnn(CCN4CCOCC4)c3)cc2NC(=O)c2c[nH]c(=O)cc2C(F)(F)F)CCN1C (stereo in doubt) [Example 714, N-[4-fluoro-5-[1-(2-morpholin-4-ylethyl)pyrazol-4-yl]-2-[(3R)-3,4-dimethylpiperazin-1-yl]phenyl]-6-oxo-4-(trifluoromethyl)-1H-pyridine-3-carboxamide] |
